Data published in patent publication US9238656B2, “Imidazo[4,5-b]pyridine derivatives as ALK and JAK modulators for the treatment of proliferative disorders” (priority 2012, dated 2016).

Legend:
[1] = biological target: baculovirus-expressed ALK (Homo sapiens, UniProt Q9UM73); assay: ALK kinase inhibition, TRF/ELISA; type: biochemical; settings: read-out: ALK Potency
Protocol: Briefly, each 96-well plate was coated with 100 μL/well of 10 μg/mL substrate (GST-PLC-γ) in Tris-buffered saline (TBS). […] The reaction was initiated by adding enzyme (30 ng/mL ALK) and was allowed to proceed at 37° C. for 15 minutes. Detection of the phosphorylated product was performed by adding 100 μL/well of Eu-N1 labeled PT66 antibody (Perkin Elmer #AD0041). […] Data analysis was performed using ActivityBase (IDBS, Guilford, UK). IC50 values were calculated by plotting percent inhibition versus log10 of the concentration of compound and fitting to the nonlinear regression sigmoidal dose-response (variable slope) equation in XLFit (IDBS, Guilford, UK).

[2] = biological target: baculovirus-expressed JAK2 kinase (Homo sapiens, UniProt O60674); assay: biochemical; settings: 0.2 μM ATP; read-out: JAK2 Potency
Protocol: Compounds were tested for their ability to inhibit the kinase activity of baculovirus-expressed JAK2 kinase using the time-resolved fluorescence (TRF) detection system. […] The plates were coated with 100 μL/well of 10 μg/mL Neutravidin (Pierce #31000, Rockford, Ill.) in TBS at 37° C. for 2 h, followed by 100 μL/well of 1 μg/mL 15-mer peptide substrate (biotinyl-amino-hexanoyl-[…]-amide, Infinity Biotech Research and Resource, Aston, Pa.) at 37° C. for 1 h. […] Enzyme (15 ng/mL JAK2) was added and the reaction was allowed to proceed at room temperature for 20 min. […] Inhibition data were analyzed using ActivityBase (IDBS, Guilford, UK). IC50 values were calculated by plotting percent inhibition versus log10 of the concentration of compound and fitting to the nonlinear regression sigmoidal dose-response (variable slope) equation in XLFit (IDBS, Guilford, UK).

baculovirus-expressed ALK, sequence (Q9UM73 19-1620): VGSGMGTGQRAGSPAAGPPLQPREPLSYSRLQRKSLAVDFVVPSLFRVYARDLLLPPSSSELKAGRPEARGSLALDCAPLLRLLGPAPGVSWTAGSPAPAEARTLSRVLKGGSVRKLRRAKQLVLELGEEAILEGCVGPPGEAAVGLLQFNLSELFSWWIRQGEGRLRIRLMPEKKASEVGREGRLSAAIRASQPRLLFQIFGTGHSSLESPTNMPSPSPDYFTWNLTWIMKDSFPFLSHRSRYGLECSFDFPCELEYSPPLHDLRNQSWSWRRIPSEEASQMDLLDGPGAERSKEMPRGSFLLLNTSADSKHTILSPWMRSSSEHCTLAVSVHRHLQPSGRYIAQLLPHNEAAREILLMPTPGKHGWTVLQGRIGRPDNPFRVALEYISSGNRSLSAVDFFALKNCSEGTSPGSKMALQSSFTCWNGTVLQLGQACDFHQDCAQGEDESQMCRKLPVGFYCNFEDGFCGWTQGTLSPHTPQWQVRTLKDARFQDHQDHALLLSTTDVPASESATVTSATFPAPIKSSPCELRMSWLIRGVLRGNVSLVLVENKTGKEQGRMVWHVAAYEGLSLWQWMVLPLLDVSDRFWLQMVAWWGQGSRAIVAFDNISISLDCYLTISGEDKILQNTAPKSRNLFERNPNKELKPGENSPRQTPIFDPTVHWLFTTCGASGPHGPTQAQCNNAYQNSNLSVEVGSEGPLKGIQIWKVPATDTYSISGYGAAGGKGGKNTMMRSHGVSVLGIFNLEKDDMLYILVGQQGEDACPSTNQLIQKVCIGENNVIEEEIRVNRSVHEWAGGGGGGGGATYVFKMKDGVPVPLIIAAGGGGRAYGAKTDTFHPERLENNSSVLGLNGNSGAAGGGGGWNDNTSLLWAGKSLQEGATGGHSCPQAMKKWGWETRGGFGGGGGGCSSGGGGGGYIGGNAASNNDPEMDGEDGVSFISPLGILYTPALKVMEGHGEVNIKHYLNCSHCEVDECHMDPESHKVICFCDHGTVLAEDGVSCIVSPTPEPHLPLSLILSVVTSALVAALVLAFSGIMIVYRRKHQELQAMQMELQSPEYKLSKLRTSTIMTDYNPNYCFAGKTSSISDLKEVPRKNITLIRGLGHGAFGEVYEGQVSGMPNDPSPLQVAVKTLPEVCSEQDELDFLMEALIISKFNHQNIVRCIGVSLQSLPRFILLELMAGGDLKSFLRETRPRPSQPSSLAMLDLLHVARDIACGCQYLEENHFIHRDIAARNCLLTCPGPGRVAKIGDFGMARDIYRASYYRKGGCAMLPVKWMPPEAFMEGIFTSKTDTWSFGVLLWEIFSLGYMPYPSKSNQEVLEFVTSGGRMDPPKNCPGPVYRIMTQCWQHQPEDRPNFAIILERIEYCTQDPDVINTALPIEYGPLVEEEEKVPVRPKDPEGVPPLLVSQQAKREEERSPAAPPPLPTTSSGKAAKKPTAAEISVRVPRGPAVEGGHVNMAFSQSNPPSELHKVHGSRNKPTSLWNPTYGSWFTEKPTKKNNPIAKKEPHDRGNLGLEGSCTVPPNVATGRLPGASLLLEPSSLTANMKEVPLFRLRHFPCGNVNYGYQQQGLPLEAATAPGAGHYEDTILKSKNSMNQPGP
baculovirus-expressed JAK2 kinase, sequence (O60674 whole entry): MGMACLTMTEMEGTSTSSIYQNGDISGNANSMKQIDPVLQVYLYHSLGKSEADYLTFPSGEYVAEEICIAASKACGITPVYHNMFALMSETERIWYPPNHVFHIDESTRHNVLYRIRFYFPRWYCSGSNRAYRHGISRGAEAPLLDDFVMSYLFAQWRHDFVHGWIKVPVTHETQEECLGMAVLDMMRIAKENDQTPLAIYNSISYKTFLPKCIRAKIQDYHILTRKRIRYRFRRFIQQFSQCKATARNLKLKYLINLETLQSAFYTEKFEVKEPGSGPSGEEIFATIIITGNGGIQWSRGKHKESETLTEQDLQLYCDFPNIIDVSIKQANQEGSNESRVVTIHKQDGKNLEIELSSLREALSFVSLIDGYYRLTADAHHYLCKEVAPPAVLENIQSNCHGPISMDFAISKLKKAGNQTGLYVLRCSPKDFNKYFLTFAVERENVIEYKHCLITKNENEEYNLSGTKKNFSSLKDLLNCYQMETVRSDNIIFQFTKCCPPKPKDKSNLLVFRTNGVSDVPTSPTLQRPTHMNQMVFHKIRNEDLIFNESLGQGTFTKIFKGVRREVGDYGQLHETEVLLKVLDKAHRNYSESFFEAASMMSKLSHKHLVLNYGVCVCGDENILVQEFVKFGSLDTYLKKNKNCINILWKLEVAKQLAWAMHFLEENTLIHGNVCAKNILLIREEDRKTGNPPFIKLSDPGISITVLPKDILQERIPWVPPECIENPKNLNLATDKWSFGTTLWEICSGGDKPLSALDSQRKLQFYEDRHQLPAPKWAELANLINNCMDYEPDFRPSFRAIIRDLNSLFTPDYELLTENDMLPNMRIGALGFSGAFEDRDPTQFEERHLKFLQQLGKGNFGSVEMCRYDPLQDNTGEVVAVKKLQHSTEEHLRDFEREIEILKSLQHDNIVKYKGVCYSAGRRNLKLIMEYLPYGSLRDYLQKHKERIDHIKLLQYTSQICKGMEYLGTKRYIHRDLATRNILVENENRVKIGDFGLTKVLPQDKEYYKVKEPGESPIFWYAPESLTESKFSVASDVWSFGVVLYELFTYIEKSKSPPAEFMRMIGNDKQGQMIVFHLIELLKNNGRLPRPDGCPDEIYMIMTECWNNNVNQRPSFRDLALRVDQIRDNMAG

| Structure (SMILES) | IC50 [1] [nM] | IC50 [2] [nM] |
| --- | --- | --- |
| CN1CCN(CCOc2ccc(-c3nc4c(N[C@H]5[C@@H](C(N)=O)[C@@H]6C=C[C@H]5C6)c(Cl)cnc4[nH]3)cc2)CC1 [Compound CCL, (1S,2S,3R,4R)-3-(6-chloro-2-(4-(2-(4-methylpiperazin-1-yl)ethoxy)phenyl)-3H-imidazo[4,5-b]pyridin-7-ylamino)bicyclo[2.2.1]hept-5-ene-2-carboxamide] | < 100 | < 100 |
| CC(O)CN1CCC(Oc2cccc(-c3nc4c(N[C@H]5[C@@H](C(N)=O)[C@@H]6C=C[C@H]5C6)c(Cl)cnc4[nH]3)c2)CC1 (stereo partly drawn) [Compound CCLI, (1S,2S,3R,4R)-3-(6-chloro-2-(3-(1-(2-hydroxypropyl)piperidin-4-yloxy)phenyl)-3H-imidazo[4,5-b]pyridine-7-ylamino)pyridin[2.2.1]hept-5-ene-2-carboxamide] | < 100 | < 100 |
| CC(O)CN1CCC(Oc2ccc(-c3nc4c(N[C@H]5[C@@H](C(N)=O)[C@@H]6C=C[C@H]5C6)c(Cl)cnc4[nH]3)cc2)CC1 (stereo partly drawn) [Compound CCLII, (1S,2S,3R,4R)-3-(6-chloro-2-(4-(1-(2-hydroxypropyl)piperidin-4-yloxy)phenyl)-3H-imidazo[4,5-b]pyridin-7-ylamino)bicyclo[2.2.1]hept-5-ene-2-carboxamide] | < 100 | < 100 |
| NC(=O)[C@@H]1[C@H](Nc2c(Cl)cnc3[nH]c(-c4cccc(OCC(=O)O)c4)nc23)[C@H]2C=C[C@@H]1C2 [Compound CCLXIII, 2-(3-(7-((1R,2R,3S,4S)-3-carbamoylbicyclo[2.2.1]hept-5-en-2-ylamino)-6-chloro-3H-imidazo[4,5-b]pyridin-2-yl)phenoxy)acetic acid] | 100 to 1000 | < 100 |
| CN1CCN(c2nc(Cl)c(-c3nc4c(N[C@H]5[C@@H](C(=O)N(C)C)[C@@H]6C=C[C@H]5C6)c(Cl)cnc4[nH]3)s2)CC1 [Compound CCLXIV, (1S,2S,3R,4R)-3-((6-chloro-2-(4-chloro-2-(4-methylpiperazin-1-yl)thiazol-5-yl)-3H-imidazo[4,5-b]pyridin-7-yl)amino)-N,N-dimethylbicyclo[2.2.1]hept-5-ene-2-carboxamide] | < 100 | < 100 |
| Cn1cc(-c2nc3c(N[C@H]4[C@@H](C(N)=O)[C@@H]5CC[C@H]4O5)c(Cl)cnc3[nH]2)cn1 [Compound CCV, (1S,2R,3S,4R)-3-(6-chloro-2-(1-methyl-1H-pyrazol-4-yl)-3H-imidazo[4,5-b]pyridin-7-ylamino)-7-oxabicyclo[2.2.1]heptane-2-carboxamide] | > 10000 | 100 to 1000 |
| COc1cc(N2CCOCC2)ccc1-c1nc2c(N[C@H]3[C@@H](C(N)=O)[C@@H]4CC[C@H]3O4)c(Cl)cnc2[nH]1 [Compound CCVI, (1S,2R,3S,4R)-3-(6-chloro-2-(2-methoxy-4-morpholinophenyl)-3H-imidazo[4,5-b]pyridin-7-ylamino)-7-oxabicyclo[2.2.1]heptane-2-carboxamide] | 100 to 1000 | 1000 to 10000 |
| NC(=O)[C@@H]1[C@H](Nc2c(Cl)cnc3[nH]c(-c4cncs4)nc23)[C@H]2C=C[C@@H]1C2 [Compound CCVII, (1S,2S,3R,4R)-3-(6-chloro-2-(thiazol-5-yl)-3H-imidazo[4,5-b]pyridin-7-ylamino)bicyclo[2.2.1]hept-5-ene-2-carboxamide] | 100 to 1000 | < 100 |
| Cc1ncc(-c2nc3c(N[C@H]4[C@@H](C(N)=O)[C@@H]5C=C[C@H]4C5)c(Cl)cnc3[nH]2)s1 [Compound CCVIII, (1S,2S,3R,4R)-3-(6-chloro-2-(2-methylthiazol-5-yl)-3H-imidazo[4,5-b]pyridin-7-ylamino)bicyclo[2.2.1]hept-5-ene-2-carboxamide] | 100 to 1000 | < 100 |
| NC(=O)[C@@H]1[C@H](Nc2c(Cl)cnc3[nH]c(-c4cnc(N5CCOCC5)s4)nc23)[C@H]2C=C[C@@H]1C2 [Compound CCX, (1S,2S,3R,4R)-3-(6-chloro-2-(2-morpholinothiazol-5-yl)-3H-imidazo[4,5-b]pyridin-7-ylamino)bicyclo[2.2.1]hept-5-ene-2-carboxamide] | < 100 | < 100 |
| CN1CCN(c2ncc(-c3nc4c(N[C@H]5[C@@H](C(N)=O)[C@@H]6C=C[C@H]5C6)c(Cl)cnc4[nH]3)s2)CC1 [Compound CCXI, (1S,2S,3R,4R)-3-(6-chloro-2-(2-(4-methylpiperazin-1-yl)thiazol-5-yl)-3H-imidazo[4,5-b]pyridin-7-ylamino)bicyclo[2.2.1]hept-5-ene-2-carboxamide] | < 100 | < 100 |
| CN1CCN(c2nc(Cl)c(-c3nc4c(N[C@H]5[C@@H](C(N)=O)[C@@H]6C=C[C@H]5C6)c(Cl)cnc4[nH]3)s2)CC1 [Compound CCXII, (1S,2S,3R,4R)-3-(6-chloro-2-(4-chloro-2-(4-methylpiperazin-1-yl)thiazol-5-yl)-3H-imidazo[4,5-b]pyridin-7-ylamino)bicyclo[2.2.1]hept-5-ene-2-carboxamide] | < 100 | < 100 |
| NC(=O)[C@@H]1[C@H](Nc2c(Cl)cnc3[nH]c(-c4cn5c(n4)CCCC5)nc23)[C@H]2C=C[C@@H]1C2 [Compound CCXIII, (1S,2S,3R,4R)-3-(6-chloro-2-(5,6,7,8-tetrahydroimidazo[1,2-a]pyridin-2-yl)-3H-imidazo[4,5-b]pyridin-7-ylamino)bicyclo[2.2.1]hept-5-ene-2-carboxamide] | 100 to 1000 | < 100 |
| NC(=O)[C@@H]1[C@H](Nc2c(Cl)cnc3[nH]c(-c4cccc(C(=O)N5CCNCC5)c4)nc23)[C@H]2C=C[C@@H]1C2 [Compound CCXIX, (1S,2S,3R,4R)-3-(6-chloro-2-(3-(piperazine-1-carbonyl)phenyl)-3H-imidazo[4,5-b]pyridin-7-ylamino)bicyclo[2.2.1]hept-5-ene-2-carboxamide] | < 100 | < 100 |
| NC(=O)COc1ccc(-c2nc3c(N[C@H]4[C@@H](C(N)=O)[C@@H]5C=C[C@H]4C5)c(Cl)cnc3[nH]2)cc1 [Compound CCXL, (1S,2S,3R,4R)-3-(2-(4-(2-amino-2-oxoethoxy)phenyl)-6-chloro-3H-imidazo[4,5-b]pyridin-7-ylamino)bicyclo[2.2.1]hept-5-ene-2-carboxamide] | 100 to 1000 | < 100 |
| CC(O)CN1CCN(C(=O)COc2cccc(-c3nc4c(N[C@H]5[C@@H](C(N)=O)[C@@H]6C=C[C@H]5C6)c(Cl)cnc4[nH]3)c2)CC1 (stereo partly drawn) [Compound CCXLI, (1S,2S,3R,4R)-3-(6-chloro-2-(3-(2-(4-(2-hydroxypropyl)piperazin-1-yl)-2-oxoethoxy)phenyl)-3H-imidazo[4,5-b]pyridin-7-ylamino)bicyclo[2.2.1]hept-5-ene-2-carboxamide] | 100 to 1000 | < 100 |
| CC(O)CN1CCN(C(=O)COc2ccc(-c3nc4c(N[C@H]5[C@@H](C(N)=O)[C@@H]6C=C[C@H]5C6)c(Cl)cnc4[nH]3)cc2)CC1 (stereo partly drawn) [Compound CCXLII, (1S,2S,3R,4R)-3-(6-chloro-2-(4-(2-(4-(2-hydroxypropyl)piperazin-1-yl)-2-oxoethoxy)phenyl)-3H-imidazo[4,5-b]pyridin-7-ylamino)bicyclo[2.2.1]hept-5-ene-2-carboxamide] | < 100 | < 100 |
| CN1CCN(C(=O)COc2cccc(-c3nc4c(N[C@H]5[C@@H](C(N)=O)[C@@H]6C=C[C@H]5C6)c(Cl)cnc4[nH]3)c2)CC1 [Compound CCXLIII, (1S,2S,3R,4R)-3-(6-chloro-2-(3-(2-(4-methylpiperazin-1-yl)-2-oxoethoxy)phenyl)-3H-imidazo[4,5-b]pyridine-7-ylamino)pyridin[2.2.1]hept-5-ene-2-carboxamide] | < 100 | < 100 |
| CN1CCN(C(=O)COc2ccc(-c3nc4c(N[C@H]5[C@@H](C(N)=O)[C@@H]6C=C[C@H]5C6)c(Cl)cnc4[nH]3)cc2)CC1 [Compound CCXLIV, (1S,2S,3R,4R)-3-(6-chloro-2-(4-(2-(4-methylpiperazin-1-yl)-2-oxoethoxy)phenyl)-3H-imidazo[4,5-b]pyridin-7-ylamino)bicyclo[2.2.1]hept-5-ene-2-carboxamide] | < 100 | < 100 |
| CN(C)CCOc1ccc(-c2nc3c(N[C@H]4[C@@H](C(N)=O)[C@@H]5C=C[C@H]4C5)c(Cl)cnc3[nH]2)cc1 [Compound CCXLIX, (1S,2S,3R,4R)-3-(6-chloro-2-(4-(2-(dimethylamino)ethoxy)phenyl)-3H-imidazo[4,5-b]pyridin-7-ylamino)bicyclo[2.2.1]hept-5-ene-2-carboxamide] | < 100 | < 100 |
| CN1CCC(Oc2ccc(-c3nc4c(N[C@H]5[C@@H](C(N)=O)[C@@H]6C=C[C@H]5C6)c(Cl)cnc4[nH]3)cc2)CC1 [Compound CCXLV, (1S,2S,3R,4R)-3-(6-chloro-2-(4-(1-methylpiperidin-4-yloxy)phenyl)-3H-imidazo[4,5-b]pyridin-7-ylamino)bicyclo[2.2.1]hept-5-ene-2-carboxamide] | < 100 | < 100 |
